# Experimental data as given in patent US12514251B2, “Fused heterocyclic compounds and their use as pest control agents” (priority 2020, dated 2026).
# Test system: Plutella xylostella
# Test: Plutella xylostella, leaf dip method
# Format: in vivo
# Settings: foliar, cabbage leaf dip, second instar larvae, 72 h after release, dead + moribund vs untreated control, read-out: percent mortality
# Protocol: The leaf dip method was used for testing, wherein the required quantity of the compound was weighed and dissolved in a tube containing solvent solution. The tube was put on a vortex at 2000 rpm for 90 min for proper mixing, then diluted with 0.01% Triton-X solution to get the desired test concentration. Cabbage leaves were dipped in the compound solution for 10 seconds, shade dried for 20 min and then transferred into the cells of bioassay trays. A single second instar larva was released into each cell and the tray was covered with a lid. The bio-assay trays were then kept under laboratory conditions at a temperature of 25° C. and a relative humidity of 70%. Observations on dead, moribund and alive larvae were recorded 72 h after the release. Percent mortality was calculated by combining dead and moribund larvae and comparing the result to the one of the untreated control.
row,Compound,mortality at 300 ppm
1,"CCS(=O)(=O)c1cc(C2CC2)cnc1-c1ccn2nc(C(F)(F)F)nc2n1 [Compound 142, 5-(5-cyclopropyl-3-(ethylsulfonyl)pyridin-2-yl)-2-(trifluoromethyl)-[1,2,4]triazolo[1,5-a]pyrimidine]",≥ 70%
2,"CCS(=O)(=O)c1cc(OCC2CC2)cnc1-c1ccn2nc(C(F)(F)F)nc2n1 [Compound 161, 5-(5-(cyclopropylmethoxy)-3-(ethylsulfonyl)pyridin-2-yl)-2-(trifluoromethyl)-[1,2,4]triazolo[1,5-a]pyrimidine]",≥ 70%
3,"CCS(=O)(=O)c1cc(-c2ccn3nc(C(F)(F)F)cc3n2)cnc1-n1ncn(-c2ccc(Cl)cc2)c1=O [Compound 80, 4-(4-chlorophenyl)-2-(3-(ethylsulfonyl)-5-(2-(trifluoromethyl)pyrazolo[1,5-a]pyrimidin-5-yl)pyridin-2-yl)-2,4-dihydro-3H-1,2,4-triazol-3-one]",≥ 70%
4,"CCSc1cc(C2CC2)cnc1-c1ccn2nc(C(F)(F)F)cc2n1 [Compound 189, 5-(5-cyclopropyl-3-(ethylthio)pyridin-2-yl)-2-(trifluoromethyl)pyrazolo[1,5-a]pyrimidine]",≥ 70%
5,"CCS(=O)(=O)c1cc(N)cnc1-c1ccn2nc(C(F)(F)F)cc2n1 [Compound 223, 5-(ethylsulfonyl)-6-(2-(trifluoromethyl)pyrazolo[1,5-a]pyrimidin-5-yl)pyridin-3-amine]",≥ 70%
6,"CCS(=O)(=O)c1ccc(-n2ccc(F)n2)nc1-c1ccn2nc(C(F)(F)F)cc2n1 [Compound 140, 5-(3-(ethylsulfonyl)-6-(3-fluoro-1H-pyrazol-1-yl)pyridin-2-yl)-2-(trifluoromethyl)pyrazolo[1,5-a]pyrimidine]",≥ 70%
7,"CCS(=O)(=O)c1ccc(N(C)C2CC2)nc1-c1ccn2nc(C(F)(F)F)nc2n1 [Compound 176, N-cyclopropyl-5-(ethylsulfonyl)-N-methyl-6-(2-(trifluoromethyl)-[1,2,4]triazolo[1,5-a]pyrimidin-5-yl)pyridin-2-amine]",≥ 70%
8,"CCS(=O)(=O)c1ccc(NC(C)C)nc1-c1ccn2nc(C(F)(F)F)cc2n1 [Compound 241, 5-(ethylsulfonyl)-N-isopropyl-6-(2-(trifluoromethyl)pyrazolo[1,5-a]pyrimidin-5-yl)pyridin-2-amine]",≥ 70%
9,"CCS(=O)(=O)c1cc(-c2ccc(OC(F)(F)C(F)F)cc2)cnc1-c1ccn2nc(C(F)(F)F)nc2n1 [Compound 104, 5-(3-(ethylsulfonyl)-5-(4-(1,1,2,2-tetrafluoroethoxy)phenyl)pyridin-2-yl)-2-(trifluoromethyl)-[1,2,4]triazolo[1,5-a]pyrimidine]",≥ 70%
10,"CCS(=O)(=O)c1ccc(-n2nc3ccc(C(F)(F)F)cn3c2=O)nc1-c1ccn2nc(C(F)(F)F)cc2n1 [Compound 27, 2-(5-(ethylsulfonyl)-6-(2-(trifluoromethyl)pyrazolo[1,5-a]pyrimidin-5-yl)pyridin-2-yl)-6-(trifluoromethyl)-[1,2,4]triazolo[4,3-a]pyridin-3(2H)-one]",≥ 70%
11,"CCS(=O)(=O)c1ccc(-c2ccc(OC(F)(F)C(F)F)cc2)nc1-c1ccn2nc(C(F)(F)F)cc2n1 [Compound 28, 5-(3-(ethylsulfonyl)-6-(4-(1,1,2,2-tetrafluoroethoxy)phenyl)pyridin-2-yl)-2-(trifluoromethyl)pyrazolo[1,5-a]pyrimidine]",≥ 70%
12,"CCS(=O)(=O)c1ccc(-c2ccc(F)cc2)nc1-c1ccn2nc(C(F)(F)F)cc2n1 [Compound 16, 5-(3-(ethylsulfonyl)-6-(4-fluorophenyl)pyridin-2-yl)-2-(trifluoromethyl)pyrazolo[1,5-a]pyrimidine]",≥ 70%
13,"CCS(=O)(=O)c1cc(NC(=O)OC(C)(C)C)cnc1-c1ccn2nc(C(F)(F)F)cc2n1 [Compound 222, tert-butyl (5-(ethylsulfonyl)-6-(2-(trifluoromethyl)pyrazolo[1,5-a]pyrimidin-5-yl)pyridin-3-yl)carbamate]",≥ 70%
14,"CCS(=O)(=O)c1ccc(C(C)C)nc1-c1ccn2nc(C(F)(F)F)cc2n1 [Compound 238, 5-(3-(ethylsulfonyl)-6-isopropylpyridin-2-yl)-2-(trifluoromethyl)pyrazolo[1,5-a]pyrimidine]",≥ 70%
15,"CCS(=O)(=O)c1cc(-c2cc(Cl)cc(Cl)c2)cnc1-c1ncc2nc(C(F)(F)F)n(C)c2n1 [Compound 128, 2-(5-(3,5-dichlorophenyl)-3-(ethylsulfonyl)pyridin-2-yl)-9-methyl-8-(trifluoromethyl)-9H-purine]",≥ 70%
16,"CCS(=O)(=O)c1ccc(C)nc1-c1ccn2nc(C(F)(F)F)nc2n1 [Compound 183, 5-(3-(ethylsulfonyl)-6-methylpyridin-2-yl)-2-(trifluoromethyl)-[1,2,4]triazolo[1,5-a]pyrimidine]",≥ 70%
17,"CCSc1cc(-c2ccc(F)cc2)cnc1-c1ccn2nc(C(F)(F)F)cc2n1 [Compound 190, 5-(3-(ethylthio)-5-(4-fluorophenyl)pyridin-2-yl)-2-(trifluoromethyl)pyrazolo[1,5-a]pyrimidine]",≥ 70%

row,Compound,mortality at 300 ppm
1,"CCS(=O)(=O)c1ccc(C=C(C)C)nc1-c1ccn2nc(C(F)(F)F)cc2n1 [Compound 210, 5-(3-(ethylsulfonyl)-6-(2-methylprop-1-en-1-yl)pyridin-2-yl)-2-(trifluoromethyl)pyrazolo[1,5-a]pyrimidine]",≥ 70%
2,"CCS(=O)(=O)c1cc(-c2cccc(C(F)(F)F)c2)cnc1-c1ncc2nc(C(F)(F)F)n(C)c2n1 [Compound 117, 2-(3-(ethylsulfonyl)-5-(3-(trifluoromethyl)phenyl)pyridin-2-yl)-9-methyl-8-(trifluoromethyl)-9H-purine]",≥ 70%
3,"CCS(=O)(=O)c1cc(-c2ccc(Cl)c(F)c2)cnc1-c1ncc2nc(C(F)(F)F)n(C)c2n1 [Compound 124, 2-(5-(4-chloro-3-fluorophenyl)-3-(ethylsulfonyl)pyridin-2-yl)-9-methyl-8-(trifluoromethyl)-9H-purine]",≥ 70%
4,"CCS(=O)(=O)c1cc(-c2cc(F)cc(Cl)c2)cnc1-c1ncc2nc(C(F)(F)F)n(C)c2n1 [Compound 131, 2-(5-(3-chloro-5-fluorophenyl)-3-(ethylsulfonyl)pyridin-2-yl)-9-methyl-8-(trifluoromethyl)-9H-purine]",≥ 70%
5,"CCS(=O)(=O)c1cc(-c2ccn3nc(C(F)(F)F)cc3n2)cnc1-n1cncn1 [Compound 31, 5-(5-(ethylsulfonyl)-6-(1H-1,2,4-triazol-1-yl)pyridin-3-yl)-2-(trifluoromethyl)pyrazolo[1,5-a]pyrimidine]",≥ 70%
6,"CCS(=O)(=O)c1ccc(-c2ccc(C#N)cc2)nc1-c1ccn2nc(C(F)(F)F)cc2n1 [Compound 18, 4-(5-(ethylsulfonyl)-6-(2-(trifluoromethyl)pyrazolo[1,5-a]pyrimidin-5-yl)pyridin-2-yl)benzonitrile]",≥ 70%
7,"CCS(=O)(=O)c1cc(-c2ccc(Cl)cc2)cnc1-c1ncc2nc(C(F)(F)F)n(C)c2n1 [Compound 123, 2-(5-(4-chlorophenyl)-3-(ethylsulfonyl)pyridin-2-yl)-9-methyl-8-(trifluoromethyl)-9H-purine]",≥ 70%
8,"CCS(=O)(=O)c1ccc(-n2cncn2)nc1-c1ccn2nc(C(F)(F)F)cc2n1 [Compound 3, 5-(3-(ethylsulfonyl)-6-(1H-1,2,4-triazol-1-yl)pyridin-2-yl)-2-(trifluoromethyl)pyrazolo[1,5-a]pyrimidine]",≥ 70%
9,"CCS(=O)(=O)c1cc(-c2ccc(F)cc2)cnc1-c1ccn2nc(C(F)(F)F)nc2n1 [Compound 105, 5-(3-(ethylsulfonyl)-5-(4-fluorophenyl)pyridin-2-yl)-2-(trifluoromethyl)-[1,2,4]triazolo[1,5-a]pyrimidine]",≥ 70%
10,"CCS(=O)(=O)c1ccc(NCC2CC2)nc1-c1ccn2nc(C(F)(F)F)cc2n1 [Compound 242, N-(cyclopropylmethyl)-5-(ethylsulfonyl)-6-(2-(trifluoromethyl)pyrazolo[1,5-a]pyrimidin-5-yl)pyridin-2-amine]",≥ 70%
11,"CCc1ccc(S(=O)(=O)CC)c(-c2ccn3nc(C(F)(F)F)cc3n2)n1 [Compound 209, 5-(6-ethyl-3-(ethylsulfonyl)pyridin-2-yl)-2-(trifluoromethyl)pyrazolo[1,5-a]pyrimidine]",≥ 70%
12,"CCS(=O)(=O)c1ccc(OC2CSC2)nc1-c1ccn2nc(C(F)(F)F)cc2n1 [Compound 243, 5-(3-(ethylsulfonyl)-6-(thietan-3-yloxy)pyridin-2-yl)-2-(trifluoromethyl)pyrazolo[1,5-a]pyrimidine]",≥ 70%
13,"CCS(=O)(=O)c1ccc(OC)nc1-c1ccn2nc(C(F)(F)F)cc2n1 [Compound 226, 5-(3-(ethylsulfonyl)-6-methoxypyridin-2-yl)-2-(trifluoromethyl)pyrazolo[1,5-a]pyrimidine]",≥ 70%
14,"CC#Cc1cnc(-c2ccn3nc(C(F)(F)F)cc3n2)c(S(=O)(=O)CC)c1 [Compound 178, 5-(3-(ethylsulfonyl)-5-(prop-1-yn-1-yl)pyridin-2-yl)-2-(trifluoromethyl)pyrazolo[1,5-a]pyrimidine]",≥ 70%
15,"CCS(=O)(=O)c1cc(CC#N)cnc1-c1ccn2nc(C(F)(F)F)cc2n1 [Compound 232, 2-(5-(ethylsulfonyl)-6-(2-(trifluoromethyl)pyrazolo[1,5-a]pyrimidin-5-yl)pyridin-3-yl)acetonitrile]",≥ 70%
16,"CCS(=O)(=O)c1cc(-c2ccc(OC(F)(F)F)cc2)cnc1-c1ncc2nc(C(F)(F)F)n(C)c2n1 [Compound 119, 2-(3-(ethylsulfonyl)-5-(4-(trifluoromethoxy)phenyl)pyridin-2-yl)-9-methyl-8-(trifluoromethyl)-9H-purine]",≥ 70%
